Here are results for 62 compounds from patent publication US12655127B2, “Fused ring compound as Wee-1 inhibitor” (WIGEN BIOMEDICINE TECHNOLOGY (SHANGHAI) CO., LTD., priority 2021, dated 2026).

As usually defined, the IC50 is the concentration needed to halve the response being measured.

Sequence of recombinant protein Wee-1 (P30291 whole entry): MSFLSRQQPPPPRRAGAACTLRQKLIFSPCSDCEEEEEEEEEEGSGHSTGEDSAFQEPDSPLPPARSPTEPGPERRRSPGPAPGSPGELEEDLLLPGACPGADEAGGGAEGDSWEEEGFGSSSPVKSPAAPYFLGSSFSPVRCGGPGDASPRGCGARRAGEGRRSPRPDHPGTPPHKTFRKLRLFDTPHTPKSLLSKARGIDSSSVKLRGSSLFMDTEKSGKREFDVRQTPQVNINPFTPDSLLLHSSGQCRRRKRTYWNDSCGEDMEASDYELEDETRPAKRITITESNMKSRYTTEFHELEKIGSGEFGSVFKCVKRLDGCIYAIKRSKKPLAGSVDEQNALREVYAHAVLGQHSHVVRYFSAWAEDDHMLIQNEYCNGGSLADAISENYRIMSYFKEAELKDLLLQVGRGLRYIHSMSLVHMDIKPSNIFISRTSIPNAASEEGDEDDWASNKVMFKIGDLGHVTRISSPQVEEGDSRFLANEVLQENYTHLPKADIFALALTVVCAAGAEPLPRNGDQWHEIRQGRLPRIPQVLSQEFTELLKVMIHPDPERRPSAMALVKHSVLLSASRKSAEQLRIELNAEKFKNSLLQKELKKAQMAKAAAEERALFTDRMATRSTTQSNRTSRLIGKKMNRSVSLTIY

The target of the test is recombinant protein Wee-1 (Homo sapiens, UniProt P30291). In words: Inhibition of enzymatic activity of recombinant protein Wee-1 (HTRF). Type of test: biochemical. How it is done: The inhibitory effect of the compounds on the enzyme activity of recombinant protein Wee-1 was determined by HTRF. The procedures are as follows:
After DMSO or serially diluted compounds (up to 200 nM, 1:5 serially diluted) and recombinant proteins were co-incubated in a kinase buffer at 37° C. for 30 min Fluorescein-PolyGAT and ATP were added, and then the reaction was started by the addition of a substrate. After incubation at room temperature for 90 min, an antibody and a detection solution were added, and after further incubation at room temperature for 60 min, fluorescence values were detected (excitation wavelength: 340 nm, emission wavelengths: 495 and 520 nm). The 520 nm/495 nm fluorescence intensity ratio value was calculated, and compared with that of the DMSO group, and then the inhibition percentages and IC50 values of the compounds were calculated.
(In general: Time-resolved FRET reads energy transfer from a long-lived donor to a nearby acceptor.)
Turning to `CN1Cc2cc(Nc3ncc(C#N)c(Nc4cccc(N=S(C)(C)=O)n4)n3)cc3c2[C@@H](CC3)C1` [Compound 52], the IC50 lay in the range of 0.01 to 0.05 µM.

For the compound `CN1Cc2cc(Nc3ncc(C#N)c(Nc4cccc(N=S(C)(C)=O)n4)n3)cc3c2C(C)(CC3)C1` (centres unmarked) [Compound 53], the half-inhibitory concentration (IC50) is 0.01 to 0.05 µM.

Regarding `CN1Cc2cc(Nc3ncc(C#N)c(Nc4cccc(N=S(C)(C)=O)n4)n3)cc3c2[C@](C)(CC3)C1` [Compound 54], the 50% inhibitory concentration (IC50) was in the range of 0.01 to 0.05 µM.

In the case of `CN1Cc2cc(Nc3ncc(C#N)c(Nc4cccc(N=S(C)(C)=O)n4)n3)cc3c2[C@@](C)(CC3)C1` [Compound 55], the 50% inhibitory concentration (IC50) lay in the range of 0.01 to 0.05 µM.

Turning to `CN1Cc2cc(Nc3ncc(C#N)c(Nc4cccc(N=S(C)(C)=O)n4)n3)cc3c2C(CCCC3)C1` (centres unmarked) [Compound 56], the IC50 lay within 0.01 to 0.05 µM.

Turning to `CN1Cc2cc(Nc3ncc(C#N)c(Nc4cccc(N=S(C)(C)=O)n4)n3)cc3c2[C@H](CCCC3)C1` [Compound 57], the IC50 is not above 0.01 µM.

For the compound `CN1Cc2cc(Nc3ncc(C#N)c(Nc4cccc(N=S(C)(C)=O)n4)n3)cc3c2[C@@H](CCCC3)C1` [Compound 58], the half-inhibitory concentration (IC50) is not above 0.01 µM.

Regarding `CN1Cc2cc(Nc3ncc(C#N)c(Nc4cccc(N=S(C)(C)=O)n4)n3)cc3c2C(C)(CCCC3)C1` (centres unmarked) [Compound 59], the concentration for half-maximal inhibition (IC50) was not above 0.01 µM.

Turning to `CN1Cc2cc(Nc3ncc(C#N)c(Nc4cccc(N=S(C)(C)=O)n4)n3)cc3c2[C@](C)(CCCC3)C1` [Compound 60], the 50% inhibitory concentration (IC50) is not above 0.01 µM.

`CN1Cc2cc(Nc3ncc(C#N)c(Nc4cccc(N=S(C)(C)=O)n4)n3)cc3c2[C@@](C)(CCCC3)C1` [Compound 61]: the IC50 was not above 0.01 µM.

Consider `CN1Cc2cc(Nc3ncc(C#N)c(Nc4cccc(N=S(C)(C)=O)n4)n3)cc3c2C(CCCCC3)C1` (centres unmarked) [Compound 62], for which the IC50 was not above 0.01 µM.

`CN1Cc2cc(Nc3ncc(C#N)c(Nc4cccc(N=S(C)(C)=O)n4)n3)cc3c2C(C)(CCCCC3)C1` (centres unmarked) [Compound 63]: the half-maximal inhibitory concentration (IC50) was not above 0.01 µM.

`CN1Cc2cc(Nc3ncc(C#N)c(Nc4cccc(N=S(C)(C)=O)n4)n3)cc3c2C(CCS3)C1` (centres unmarked) [Compound 65]: the IC50 was not above 0.01 µM.

On to `CN1Cc2cc(Nc3ncc(C#N)c(Nc4cccc(N=S(C)(C)=O)n4)n3)cc3c2C(COC3)C1` (centres unmarked) [Compound 66], for which the IC50 was not above 0.01 µM.

For `CN1Cc2cc(Nc3ncc(C#N)c(Nc4cccc(N=S(C)(C)=O)n4)n3)cc3c2C(CSC3)C1` (centres unmarked) [Compound 67], the IC50 is not above 0.01 µM.

As to `CN1Cc2cc(Nc3ncc(C#N)c(Nc4cccc(N=S(C)(C)=O)n4)n3)cc3c2C(C1)OCC3` (centres unmarked) [Compound 68], the IC50 was not above 0.01 µM.

For `CN1Cc2cc(Nc3ncc(C#N)c(Nc4cccc(N=S(C)(C)=O)n4)n3)cc3c2C(C1)SCC3` (centres unmarked) [Compound 69], the concentration for half-maximal inhibition (IC50) was not above 0.01 µM.

As for `CN1Cc2cc(Nc3ncc(C#N)c(Nc4cccc(N=S(C)(C)=O)n4)n3)cc3c2C(CO3)C1` (centres unmarked) [Compound 70], the 50% inhibitory concentration (IC50) is not above 0.01 µM.

Take `CN1Cc2cc(Nc3ncc(C#N)c(Nc4cccc(N=S(C)(C)=O)n4)n3)cc3c2C(CS3)C1` (centres unmarked) [Compound 71]: the 50% inhibitory concentration (IC50) was not above 0.01 µM.

Regarding `CN1Cc2cc(Nc3ncc(C#N)c(Nc4cccc(N=S(C)(C)=O)n4)n3)cc3c2C(C1)OC3` (centres unmarked) [Compound 72], the IC50 is not above 0.01 µM.

Take `CN1Cc2cc(Nc3ncc(C#N)c(Nc4cccc(N=S(C)(C)=O)n4)n3)cc3c2C(C1)SC3` (centres unmarked) [Compound 73]: the IC50 was not above 0.01 µM.

In the case of `CN1Cc2cc(Nc3ncc(C#N)c(Nc4cccc(N=S(C)(C)=O)n4)n3)cc3c2C(CCCO3)C1` (centres unmarked) [Compound 74], the IC50 was not above 0.01 µM.

On to `CN1Cc2cc(Nc3ncc(C#N)c(Nc4cccc(N=S(C)(C)=O)n4)n3)cc3c2C(CCCS3)C1` (centres unmarked) [Compound 75], for which the IC50 was not above 0.01 µM.

On to `CN1Cc2cc(Nc3ncc(C#N)c(Nc4cccc(N=S(C)(C)=O)n4)n3)cc3c2C(CCOC3)C1` (centres unmarked) [Compound 76], for which the IC50 was not above 0.01 µM.

With `CN1Cc2cc(Nc3ncc(C#N)c(Nc4cccc(N=S(C)(C)=O)n4)n3)cc3c2C(CCSC3)C1` (centres unmarked) [Compound 77], the 50% inhibitory concentration (IC50) was not above 0.01 µM.

Regarding `CN1Cc2cc(Nc3ncc(C#N)c(Nc4cccc(N=S(C)(C)=O)n4)n3)cc3c2C(COCC3)C1` (centres unmarked) [Compound 78], the IC50 was not above 0.01 µM.

For the compound `CN1Cc2cc(Nc3ncc(C#N)c(Nc4cccc(N=S(C)(C)=O)n4)n3)cc3c2C(CSCC3)C1` (centres unmarked) [Compound 79], the IC50 is not above 0.01 µM.

Consider `CN1Cc2cc(Nc3ncc(C#N)c(Nc4cccc(N=S(C)(C)=O)n4)n3)cc3c2C(C1)OCCC3` (centres unmarked) [Compound 80], for which the half-maximal inhibitory concentration (IC50) was not above 0.01 µM.

For `CN1Cc2cc(Nc3ncc(C#N)c(Nc4cccc(N=S(C)(C)=O)n4)n3)cc3c2C(C1)SCCC3` (centres unmarked) [Compound 81], the half-maximal inhibitory concentration (IC50) is not above 0.01 µM.

`CN1Cc2cc(Nc3ncc(C#N)c(Nc4cccc(N=S(C)(C)=O)n4)n3)cc3c2C(CCCCO3)C1` (centres unmarked) [Compound 82]: the IC50 is not above 0.01 µM.

In the case of `CN1Cc2cc(Nc3ncc(C#N)c(Nc4cccc(N=S(C)(C)=O)n4)n3)cc3c2C(CCCCS3)C1` (centres unmarked) [Compound 83], the IC50 was not above 0.01 µM.

For `CN1Cc2cc(Nc3ncc(C#N)c(Nc4cccc(N=S(C)(C)=O)n4)n3)cc3c2C(C=CCC3)C1` (centres unmarked) [Compound 84], the 50% inhibitory concentration (IC50) is not above 0.01 µM.

`CN1Cc2cc(Nc3ncc(C#N)c(Nc4cccc(N=S(C)(C)=O)n4)n3)cc3c2C(CC=CC3)C1` (centres unmarked) [Compound 85]: the IC50 was not above 0.01 µM.

For `CN1Cc2cc(Nc3ncc(C#N)c(Nc4cccc(N=S(C)(C)=O)n4)n3)cc3c2C(CCC=C3)C1` (centres unmarked) [Compound 86], the 50% inhibitory concentration (IC50) was not above 0.01 µM.

Consider `CN1Cc2cc(Nc3ncc(C#N)c(Nc4cccc(N=S(C)(C)=O)n4)n3)cc3c2C1CCCC3` (centres unmarked) [Compound 88], for which the IC50 is not above 0.01 µM.

Consider `CN(C)C1Cc2cc(Nc3ncc(C#N)c(Nc4cccc(N=S(C)(C)=O)n4)n3)cc3c2C(CCC3)C1` (centres unmarked) [Compound 89], for which the IC50 was not above 0.01 µM.

As to `CN(C)C1Cc2cc(Nc3ncc(C#N)c(Nc4cccc(N=S(C)(C)=O)n4)n3)cc3c2C1CCC3` (centres unmarked) [Compound 90], the half-inhibitory concentration (IC50) is not above 0.01 µM.

In the case of `CCS(=O)(CC)=Nc1cccc(Nc2nc(Nc3cc4c5c(c3)CN(C)CC5CCC4)ncc2C#N)n1` (centres unmarked) [Compound 91], the IC50 was not above 0.01 µM.

With `CN1Cc2cc(Nc3ncc(C#N)c(Nc4cccc(N=S5(=O)CCC5)n4)n3)cc3c2C(CCC3)C1` (centres unmarked) [Compound 92], the IC50 was not above 0.01 µM.

Consider `CN1Cc2cc(Nc3ncc(C#N)c(Nc4cccc(N=S5(=O)CCCC5)n4)n3)cc3c2C(CCC3)C1` (centres unmarked) [Compound 93], for which the IC50 was not above 0.01 µM.

As for `CN1Cc2cc(Nc3ncc(C(F)(F)F)c(Nc4cccc(N=S(C)(C)=O)n4)n3)cc3c2C(CCC3)C1` (centres unmarked) [Compound 94], the IC50 is not above 0.01 µM.

On to `CN1Cc2cc(Nc3ncc(C4CC4)c(Nc4cccc(N=S(C)(C)=O)n4)n3)cc3c2C(CCC3)C1` (centres unmarked) [Compound 95], for which the IC50 is not above 0.01 µM.

In the case of `CN1Cc2cc(Nc3ncc(P(C)(C)=O)c(Nc4cccc(N=S(C)(C)=O)n4)n3)cc3c2C(CCC3)C1` (centres unmarked) [Compound 96], the IC50 is not above 0.01 µM.

As for `CN1Cc2cc(Nc3ncc(S(C)(=O)=O)c(Nc4cccc(N=S(C)(C)=O)n4)n3)cc3c2C(CCC3)C1` (centres unmarked) [Compound 97], the half-inhibitory concentration (IC50) is not above 0.01 µM.

Take `CN1Cc2cc(Nc3ncc(C(N)=O)c(Nc4cccc(N=S(C)(C)=O)n4)n3)cc3c2C(CCC3)C1` (centres unmarked) [Compound 98]: the 50% inhibitory concentration (IC50) was not above 0.01 µM.

On to `CN1Cc2cc(Nc3ncc(-c4ccoc4)c(Nc4cccc(N=S(C)(C)=O)n4)n3)cc3c2C(CCC3)C1` (centres unmarked) [Compound 99], for which the half-maximal inhibitory concentration (IC50) is not above 0.01 µM.

Consider `CN1Cc2cc(Nc3ncc(Br)c(Nc4cccc(N=S(C)(C)=O)n4)n3)cc3c2C(CCC3)C1` (centres unmarked) [Compound 100], for which the IC50 is not above 0.01 µM.

In the case of `CN1Cc2cc(Nc3ncc(C#N)c(Nc4cccc(N=S(C)(C)=O)c4)n3)cc3c2C(CCC3)C1` (centres unmarked) [Compound 101], the half-maximal inhibitory concentration (IC50) is not above 0.01 µM.

Consider `CN1Cc2cc(Nc3ncc(C#N)c(Nc4ccnc(N=S(C)(C)=O)c4)n3)cc3c2C(CCC3)C1` (centres unmarked) [Compound 102], for which the half-inhibitory concentration (IC50) is not above 0.01 µM.

`CN1Cc2cc(Nc3ncc(C#N)c(Nc4cncc(N=S(C)(C)=O)c4)n3)cc3c2C(CCC3)C1` (centres unmarked) [Compound 103]: the half-maximal inhibitory concentration (IC50) was not above 0.01 µM.

With `CN1Cc2cc(Nc3ncc(C#N)c(Nc4cc(N=S(C)(C)=O)ccn4)n3)cc3c2C(CCC3)C1` (centres unmarked) [Compound 104], the concentration for half-maximal inhibition (IC50) is not above 0.01 µM.

As to `CN1Cc2cc(Nc3ncc(C#N)c(Nc4ccnc(N=S(C)(C)=O)n4)n3)cc3c2C(CCC3)C1` (centres unmarked) [Compound 106], the IC50 was not above 0.01 µM.

For `CN1Cc2cc(Nc3ncc(C#N)c(Nc4nccc(N=S(C)(C)=O)n4)n3)cc3c2C(CCC3)C1` (centres unmarked) [Compound 107], the IC50 was not above 0.01 µM.

Take `CN1Cc2cc(Nc3ncc(C#N)c(Nc4cc(F)cc(N=S(C)(C)=O)n4)n3)cc3c2C(CCC3)C1` (centres unmarked) [Compound 111]: the IC50 was not above 0.01 µM.

On to `CN1Cc2cc(Nc3ncc(C#N)c(-n4ccc5c(N=S(C)(C)=O)cccc54)n3)cc3c2C(CCC3)C1` (centres unmarked) [Compound 113], for which the IC50 is not above 0.01 µM.

In the case of `CN1Cc2cc(Nc3ncc(C#N)c(N4CCc5c(N=S(C)(C)=O)cccc54)n3)cc3c2C(CCC3)C1` (centres unmarked) [Compound 114], the IC50 was not above 0.01 µM.

Regarding `CN1Cc2cc(Nc3ncc(C#N)c(-c4c[nH]c5c(N=S(C)(C)=O)cccc45)n3)cc3c2C(CCC3)C1` (centres unmarked) [Compound 115], the 50% inhibitory concentration (IC50) is not above 0.01 µM.

For the compound `CN1Cc2cc(Nc3ncc(C#N)c(-c4cn(C)c5c(N=S(C)(C)=O)cccc45)n3)cc3c2C(CCC3)C1` (centres unmarked) [Compound 116], the IC50 was not above 0.01 µM.

Turning to `CN1Cc2cc(Nc3ncc(C#N)c(-n4cnc5c(N=S(C)(C)=O)cccc54)n3)cc3c2C(CCC3)C1` (centres unmarked) [Compound 117], the IC50 is not above 0.01 µM.

Regarding `CN1Cc2cc(Nc3ncc(C#N)c(Nc4nc(N=S(C)(C)=O)cc5[nH]ccc45)n3)cc3c2C(CCC3)C1` (centres unmarked) [Compound 118], the half-inhibitory concentration (IC50) is not above 0.01 µM.

In the case of `CN1Cc2cc(Nc3ncc(C#N)c(Nc4nc(N=S(C)(C)=O)cc5c4CCN5)n3)cc3c2C(CCC3)C1` (centres unmarked) [Compound 119], the half-inhibitory concentration (IC50) was not above 0.01 µM.

For `CN1Cc2cc(Nc3ncc(C#N)c(Nc4cc5c(c(N=S(C)(C)=O)n4)CCC5)n3)cc3c2C(CCC3)C1` (centres unmarked) [Compound 120], the IC50 is not above 0.01 µM.
